Where only a bound is given, the exact number is not on record here.

In this assay the target is T1, HPK1 (Homo sapiens, UniProt Q92918).
T1 construct: A HiBiT tag was introduced by CRISPR on the N terminus of HPK1 in Jurkat cells; host or cells: Jurkat cells (ATCC TIB-152), monoclonal line with CRISPR knock-in of HiBiT at the endogenous HPK1 locus
Put plainly: HPK1 Cellular HiBit Degradation Assay. The assay is classed as cell-based. As to conditions: HiBiT HPK1 Jurkat cells, 24 hrs; for DC50: concentration at which 50% of HPK1 was remaining, read-out: DC50 Category; for Dmax: Jurkat, maximum degradation vs DMSO vehicle control, read-out: Dmax Category. The gist of the method: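 Jurkat cells with CRISPR N-terminal HiBiT-tagged endogenous HPK1 treated 24 h at 37 °C with 11-point, 3.16-fold dilutions (10 uM to 0.1 nM final). HiBiT lytic luminescence gives % HPK1 remaining versus DMSO, with parental cells as background. Four-parameter fit yields DC50; Dmax = 100 minus lowest % remaining.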
On the technique in general: The HiBiT peptide binds its large partner to form an active luciferase.

T1 sequence (Q92918 whole entry): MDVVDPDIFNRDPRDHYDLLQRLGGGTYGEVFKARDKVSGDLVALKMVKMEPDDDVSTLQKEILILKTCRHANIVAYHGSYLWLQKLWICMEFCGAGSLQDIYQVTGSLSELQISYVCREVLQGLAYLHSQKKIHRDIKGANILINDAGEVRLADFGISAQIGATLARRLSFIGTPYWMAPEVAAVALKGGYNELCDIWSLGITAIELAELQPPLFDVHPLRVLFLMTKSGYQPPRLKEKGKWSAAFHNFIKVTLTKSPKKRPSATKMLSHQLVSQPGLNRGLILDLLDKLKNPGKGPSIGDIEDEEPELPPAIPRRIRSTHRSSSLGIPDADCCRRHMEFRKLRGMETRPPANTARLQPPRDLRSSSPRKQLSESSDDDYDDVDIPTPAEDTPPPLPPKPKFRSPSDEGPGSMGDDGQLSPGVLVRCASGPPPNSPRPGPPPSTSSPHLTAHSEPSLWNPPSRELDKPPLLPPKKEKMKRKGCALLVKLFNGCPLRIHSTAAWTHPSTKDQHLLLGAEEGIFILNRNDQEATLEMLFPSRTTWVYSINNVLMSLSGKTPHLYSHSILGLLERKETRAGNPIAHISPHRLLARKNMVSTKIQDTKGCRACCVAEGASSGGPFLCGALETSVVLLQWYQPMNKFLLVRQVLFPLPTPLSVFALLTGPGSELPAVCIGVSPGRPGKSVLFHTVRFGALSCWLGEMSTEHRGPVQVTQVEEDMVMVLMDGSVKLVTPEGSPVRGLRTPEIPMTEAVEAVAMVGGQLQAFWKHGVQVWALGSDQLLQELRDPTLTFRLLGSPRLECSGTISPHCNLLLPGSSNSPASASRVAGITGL

In the case of `CC(C)n1cnc2cc(-c3ccc4c(c3)N([C@H]3C[C@@H](N5CCCCC5)C3)C(=O)C43CCN(C(=O)C4(C)CCN(C(=O)C5CCN(c6ccc(C7CCC(=O)NC7=O)cn6)CC5)CC4)CC3)nc(N(C)C3CC3)c21` (stereo partly drawn) [Example 171, 3-[6-(4-{4-[(6-{4-[cyclopropyl(methyl)amino]-3-(propan-2-yl)-3H-imidazo[4,5-c]pyridin-6-yl}-2-oxo-1-[(1S,3S)-3-(piperidin-1-yl)cyclobutyl]-1,2-dihydrospiro[indole-3,4′-piperidin]-1′-yl)carbonyl]-4-methylpiperidine-1-carbonyl}piperidin-1-yl)pyridin-3-yl]piperidine-2,6-dione], the half-maximal degradation concentration (DC50) (as a rule, the concentration giving 50% degradation) lay in the range of 100 to 500 nM and the Dmax (usually the greatest extent of degradation seen) was in the range of 70 to 85%.

Regarding `CC(C)n1cnc2cc(-c3ccc4c(c3)N([C@H]3C[C@@H](N5CCCCC5)C3)C(=O)C43CCN(C(=O)[C@@H]4CCN(C(=O)[C@H]5CC[C@H](Nc6cc(C7CCC(=O)NC7=O)ccn6)CC5)C4)CC3)nc(Nc3ccccc3F)c21` (mixture of isomers) [Example 1, (3RS)-3-(2-{[(1R,4R)-4-[(3R)-3-[(6-{4-[(2-fluorophenyl)amino]-3-(propan-2-yl)-3H-imidazo[4,5-c]pyridin-6-yl}-2-oxo-1-[(1S,3S)-3-(piperidin-1-yl)cyclobutyl]-1,2-dihydrospiro[indole-3,4′-piperidin]-1′-yl)carbonyl]pyrrolidine-1-carbonyl]cyclohexyl]amino}pyridin-4-yl)piperidine-2,6-dione], the DC50 lay in the range of 100 to 500 nM and the greatest degradation seen (Dmax) lay in the range of 70 to 85%.

For the compound `CC(C)n1cnc2cc(-c3ccc4c(c3)N([C@H]3C[C@@H](N5CCCCC5)C3)C(=O)C43CCN(C(=O)[C@H]4CC[C@H](C(=O)N5CCC(Oc6ccc(C7CCC(=O)NC7=O)cn6)CC5)CC4)CC3)nc(Nc3ccccc3F)c21` (mixture of isomers) [Example 28, (3RS)-3-[6-({1-[(1R,4R)-4-[(6-{4-[(2-fluorophenyl)amino]-3-(propan-2-yl)-3H-imidazo[4,5-c]pyridin-6-yl}-2-oxo-1-[(1S,3S)-3-(piperidin-1-yl)cyclobutyl]-1,2-dihydrospiro[indole-3,4′-piperidin]-1′-yl)carbonyl]cyclohexanecarbonyl]piperidin-4-yl}oxy)pyridin-3-yl]piperidine-2,6-dione], the DC50 is less than 100 nM and the Dmax lay within 70 to 85%.

With `CC(C)n1cnc2cc(-c3ccc4c(c3)N([C@H]3C[C@@H](N5CCCCC5)C3)C(=O)C43CCN(C(=O)c4ccc(C(=O)N5CCN(c6ccc(C7CCC(=O)NC7=O)cn6)C[C@H]5C)cc4)CC3)nc(Nc3ccccc3F)c21` (mixture of isomers) [Example 100, (3RS)-3-{6-[(3R)-4-{4-[(6-{4-[(2-fluorophenyl)amino]-3-(propan-2-yl)-3H-imidazo[4,5-c]pyridin-6-yl}-2-oxo-1-[(1S,3S)-3-(piperidin-1-yl)cyclobutyl]-1,2-dihydrospiro[indole-3,4′-piperidin]-1′-yl)carbonyl]benzoyl}-3-methylpiperazin-1-yl]pyridin-3-yl}piperidine-2,6-dione], the 50% degradation concentration (DC50) was in the range of 100 to 500 nM and the greatest degradation seen (Dmax) lay in the range of 70 to 85%.

As for `CC(C)n1cnc2cc(-c3ccc4c(c3)N([C@H]3C[C@@H](N5CCCCC5)C3)C(=O)C43CCN(C(=O)C4CCN(C(=O)C5CCN(c6ccc(N7CCC(=O)NC7=O)cn6)CC5)CC4)CC3)nc(Nc3ccccc3F)c21` [Example 80, 1-[6-(4-{4-[(6-{4-[(2-fluorophenyl)amino]-3-(propan-2-yl)-3H-imidazo[4,5-c]pyridin-6-yl}-2-oxo-1-[(1S,3S)-3-(piperidin-1-yl)cyclobutyl]-1,2-dihydrospiro[indole-3,4′-piperidin]-1′-yl)carbonyl]piperidine-1-carbonyl}piperidin-1-yl)pyridin-3-yl]-1,3-diazinane-2,4-dione], the DC50 was less than 100 nM and the greatest degradation seen (Dmax) was 70 to 85%.

For `CC(C)n1cnc2cc(-c3ccc4c(c3)N([C@H]3C[C@@H](N5CCCCC5)C3)C(=O)C43CCN(C(=O)C4C5CN(C(=O)C6CCN(c7ccc(C8CCC(=O)NC8=O)cn7)CC6)CC54)CC3)nc(Nc3ccccc3F)c21` (mixture of isomers) [Example 39, (3RS)-3-[6-(4-{6-[(6-{4-[(2-fluorophenyl)amino]-3-(propan-2-yl)-3H-imidazo[4,5-c]pyridin-6-yl}-2-oxo-1-[(1S,3S)-3-(piperidin-1-yl)cyclobutyl]-1,2-dihydrospiro[indole-3,4′-piperidin]-1′-yl)carbonyl]-3-azabicyclo[3.1.0]hexane-3-carbonyl}piperidin-1-yl)pyridin-3-yl]piperidine-2,6-dione], the DC50 was less than 100 nM and the greatest degradation seen (Dmax) is greater than 85%.

As to `CC(C)n1cnc2cc(-c3ccc4c(c3)N([C@H]3C[C@@H](N5CCCCC5)C3)C(=O)C43CCN(C(=O)C4CCN(C(=O)C5CCN(c6ccc(C7CCC(=O)NC7=O)cn6)CC5)C5(CCC5)C4)CC3)nc(NC3CC3)c21` (mixture of isomers) [Example 270, (3RS)-3-(6-{4-[8-({6-[4-(cyclopropylamino)-3-(propan-2-yl)-3H-imidazo[4,5-c]pyridin-6-yl]-2-oxo-1-[(1S,3S)-3-(piperidin-1-yl)cyclobutyl]-1,2-dihydrospiro[indole-3,4′-piperidin]-1′-yl}carbonyl)-5-azaspiro[3.5]nonane-5-carbonyl]piperidin-1-yl}pyridin-3-yl)piperidine-2,6-dione], the half-maximal degradation concentration (DC50) was less than 100 nM and the Dmax fell in the range of 70 to 85%.

In the case of `CC(C)n1cnc2cc(-c3ccc4c(c3)N([C@H]3C[C@@H](N5CCCCC5)C3)C(=O)C43CCN(C(=O)[C@@]45C[C@@H]4CN(C(=O)C4CCN(c6ccc(C7CCC(=O)NC7=O)cn6)CC4)C5)CC3)nc(NC3CC3)c21` (mixture of isomers) [Example 259, (3RS)-3-(6-{4-[(1S,5S)-1-({6-[4-(cyclopropylamino)-3-(propan-2-yl)-3H-imidazo[4,5-c]pyridin-6-yl]-2-oxo-1-[(1S,3S)-3-(piperidin-1-yl)cyclobutyl]-1,2-dihydrospiro[indole-3,4′-piperidin]-1′-yl}carbonyl)-3-azabicyclo[3.1.0]hexane-3-carbonyl]piperidin-1-yl}pyridin-3-yl)piperidine-2,6-dione], the DC50 was less than 100 nM and the Dmax was in the range of 70 to 85%.

Take `CC(C)n1cnc2cc(-c3ccc4c(c3)N([C@H]3C[C@@H](N5CCCCC5)C3)C(=O)C43CCN(C(=O)C4(C)CCN(C(=O)C5CCN(c6ccc(N7CCC(=O)NC7=O)cn6)CC5(F)F)CC4)CC3)nc(NC3CC3)c21` (stereo partly drawn) [Example 153, 1-(6-{4-[4-({6-[4-(cyclopropylamino)-3-isopropylimidazo[4,5-c]pyridin-6-yl]-2-oxo-1-[(1S,3S)-3-(piperidin-1-yl)cyclobutyl]spiro[indole-3,4′-piperidin]-1′-yl}carbonyl)-4-methylpiperidine-1-carbonyl]-3,3-difluoropiperidin-1-yl}pyridin-3-yl)-1,3-diazinane-2,4-dione]: the 50% degradation concentration (DC50) is less than 100 nM and the Dmax fell in the range of 70 to 85%.

Consider `CC(C)n1cnc2cc(-c3ccc4c(c3)N([C@H]3C[C@@H](N5CCCCC5)C3)C(=O)C43CCN(C(=O)C4CCN(C(=O)CC5CCN(c6ccc(C7CCC(=O)NC7=O)cn6)CC5)CC4)CC3)nc(Oc3ccccc3F)c21` (stereo partly drawn) [Example 167, 3-[6-(4-{2-[4-({6-[4-(2-fluorophenoxy)-3-(propan-2-yl)-3H-imidazo[4,5-c]pyridin-6-yl]-2-oxo-1-[(1S,3S)-3-(piperidin-1-yl)cyclobutyl]-1,2-dihydrospiro[indole-3,4′-piperidin]-1′-yl}carbonyl)piperidin-1-yl]-2-oxoethyl}piperidin-1-yl)pyridin-3-yl]piperidine-2,6-dione], for which the DC50 is less than 100 nM and the Dmax was 70 to 85%.

Take `CC(C)n1cnc2cc(-c3ccc4c(c3)N([C@H]3C[C@@H](N5CCCCC5)C3)C(=O)C43CCN(C(=O)[C@@H]4[C@H]5CCN(C(=O)C6CCN(c7ccc(C8CCC(=O)NC8=O)cn7)CC6)[C@H]54)CC3)nc(Nc3ccccc3F)c21` (mixture of isomers) [Example 266, (3RS)-3-(6-{4-[(1R,5R,6R)-6-[(6-{4-[(2-fluorophenyl)amino]-3-(propan-2-yl)-3H-imidazo[4,5-c]pyridin-6-yl}-2-oxo-1-[(1S,3S)-3-(piperidin-1-yl)cyclobutyl]-1,2-dihydrospiro[indole-3,4′-piperidin]-1′-yl)carbonyl]-2-azabicyclo[3.1.0]hexane-2-carbonyl]piperidin-1-yl}pyridin-3-yl)piperidine-2,6-dione]: the DC50 is less than 100 nM and the maximal degradation (Dmax) lay within 70 to 85%.

Consider `CC(C)n1cnc2cc(-c3ccc4c(c3)N([C@H]3C[C@@H](N5CCCCC5)C3)C(=O)C43CCN(C(=O)[C@@H]4CCN(C(=O)[C@H]5CC[C@H](Oc6ccc(C7CCC(=O)NC7=O)cc6)CC5)C4)CC3)nc(NC3CC3)c21` (stereo partly drawn) [Example 13, 3-(4-{[(1R,4R)-4-[(3R)-3-({6-[4-(cyclopropylamino)-3-(propan-2-yl)-3H-imidazo[4,5-c]pyridin-6-yl]-2-oxo-1-[(1S,3S)-3-(piperidin-1-yl)cyclobutyl]-1,2-dihydrospiro[indole-3,4′-piperidin]-1′-yl}carbonyl)pyrrolidine-1-carbonyl]cyclohexyl]oxy}phenyl)piperidine-2,6-dione], for which the DC50 is less than 100 nM and the Dmax was greater than 85%.

For `CC(C)n1cnc2cc(-c3ccc4c(c3)N([C@H]3C[C@@H](N5CCCCC5)C3)C(=O)C43CCN(C(=O)[C@@H]4CCN(C(=O)[C@H]5CC[C@H](Nc6ccc(C7CCC(=O)NC7=O)cc6)CC5)C4)CC3)nc(NC3CC3)c21` (mixture of isomers) [Example 2, (3RS)-3-(4-{[(1R,4R)-4-[(3R)-3-({6-[4-(cyclopropylamino)-3-(propan-2-yl)-3H-imidazo[4,5-c]pyridin-6-yl]-2-oxo-1-[(1S,3S)-3-(piperidin-1-yl)cyclobutyl]-1,2-dihydrospiro[indole-3,4′-piperidin]-1′-yl}carbonyl)pyrrolidine-1-carbonyl]cyclohexyl]amino}phenyl)piperidine-2,6-dione], the DC50 was less than 100 nM and the greatest degradation seen (Dmax) lay within 70 to 85%.

The values above are taken from patent US12091426B2, “Bifunctional degraders of hematopoietic progenitor kinase and therapeutic uses thereof” (Nurix Therapeutics, Inc., priority 2021, dated 2024).
